Laboratory results as given in patent US10800791B2, “Triazole ACC inhibitors and uses thereof” (Gilead Apollo, LLC, priority 2015, dated 2020).
Values after ≈ are worked out from the molar mass of the structure shown. Where two headings read alike, the source gives them in different places.

What was measured:
[1] = test system: Fusarium virguliforme (Fv); assay: Growth inhibition assay of fungal pathogens, Fv; type: cell-based; conditions: 48 h
Method in brief: (§1)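 Read-out: OD600 plus visual rating at 24 and 48 h, blank (media + 2% DMSO) subtracted. Percent inhibition was derived at 48 h versus the 2% DMSO control. Spores were grown in 17% V8 broth with compound at 50/10/2 or 2/0.4/0.08 ppm final.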

C. parapsilosis = assay: Antifungal Activity Assay (broth microtiter MIC), C. parapsilosis; type: cell-based, Candida parapsilosis; conditions: Lodderomyces parapsilosis, ATCC22019, 48 h
Method in brief: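 MICs were scored by eye at 48 h relative to the growth control. Plates followed CLSI M27-A3, with Candida suspensions in RPMI 1640+MOPS giving a final 2.5×10^3 CFU/mL; the colonies came from Sabouraud agar grown overnight at 35 °C.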

[2] = test system: Phytophthora capsici (Pc); assay: Growth inhibition assay of fungal pathogens, Pc; type: cell-based; conditions: 48 h
Method in brief: as §1

[3] = test system: Collectotrichum graminicola (Cg); assay: Growth inhibition assay of fungal pathogens, Cg; type: cell-based; conditions: 48 h
Method in brief: as §1

Septoria tritici (St) = assay: Growth inhibition assay of fungal pathogens, St; type: cell-based; conditions: Zymoseptoria tritici, 48 h
Method in brief: as §1

human (hACC2) = human (hACC2) (Homo sapiens, UniProt O00763); assay: In vitro ACC inhibition assay (ADP-Glo), hACC2; type: biochemical; conditions: 5 nM ACC2, 20 μM ATP, 20 μM acetyl-CoA
Procedure: The detailed procedure is as follows. […] 10 μL ADP glo reagent was added. […] 20 μL kinase detection reagent was added.

fungal (fACC2) = fungal (fACC2) (UniProt Q00955); conditions: read-out: fACC2 (in vitro ACC2 Inhibition Assay, IC50), ADP-Glo, 5 nM ACC2, 20 μM ATP, 20 μM acetyl-CoA
Rhizoctonia solani (Rs) = assay: Growth inhibition assay of fungal pathogens, Rs; type: cell-based; conditions: 48 h
Diplodia maydis (Dm) = assay: Growth inhibition assay of fungal pathogens, Dm; type: cell-based; conditions: Stenocarpella maydis, 48 h
Method in brief: as §1

[4] = test system: Fusarium moniliforme (Fm); assay: Growth inhibition assay of fungal pathogens, Fm; type: cell-based; conditions: for IC90: Fusarium verticillioides, 48 h, read-out: Concentration at 90% Inhibition Fm
Method in brief: as §1

[5] = growth inhibition at 48 hours vs 2% DMSO control, read-out: Concentration at 90% Inhibition Fv
[6] = growth inhibition vs 2% DMSO control at 48 hours, read-out: Concentration at 90% Inhibition Fv
[7] = Table 3a, ATCC 22019, 3 replicates, MIC recorded at 48 h, read-out: MIC, C. parapsilosis ATCC 22019
[8] = Table 3b (additional results), ATCC 22019, 3 replicates, MIC recorded at 48 h, read-out: MIC, C. parapsilosis ATCC 22019
[9] = growth inhibition at 48 hours vs 2% DMSO control, read-out: Concentration at 90% Inhibition Pc
[10] = growth inhibition vs 2% DMSO control at 48 hours, read-out: Concentration at 90% Inhibition Pc
[11] = Collectotrichum graminicola, growth inhibition at 48 hours vs 2% DMSO control, read-out: Concentration at 90% Inhibition Cg
[12] = Collectotrichum graminicola, growth inhibition vs 2% DMSO control at 48 hours, read-out: Concentration at 90% Inhibition Cg
[13] = Septoria tritici, growth inhibition at 48 hours vs 2% DMSO control, read-out: Concentration at 90% Inhibition St
[14] = Septoria tritici, growth inhibition vs 2% DMSO control at 48 hours, read-out: Concentration at 90% Inhibition St
[15] = mycelial plugs, growth inhibition at 48 hours vs 2% DMSO control, read-out: Concentration at 90% Inhibition Rs
[16] = mycelial plugs, growth inhibition vs 2% DMSO control at 48 hours, read-out: Concentration at 90% Inhibition Rs
[17] = Diplodia maydis, growth inhibition at 48 hours vs 2% DMSO control, read-out: Concentration at 90% Inhibition Dm
[18] = Diplodia maydis, growth inhibition vs 2% DMSO control at 48 hours, read-out: Concentration at 90% Inhibition Dm
[19] = Fusarium moniliforme, growth inhibition at 48 hours vs 2% DMSO control
[20] = Fusarium moniliforme, growth inhibition vs 2% DMSO control at 48 hours

Chain of human (hACC2) (O00763 whole entry): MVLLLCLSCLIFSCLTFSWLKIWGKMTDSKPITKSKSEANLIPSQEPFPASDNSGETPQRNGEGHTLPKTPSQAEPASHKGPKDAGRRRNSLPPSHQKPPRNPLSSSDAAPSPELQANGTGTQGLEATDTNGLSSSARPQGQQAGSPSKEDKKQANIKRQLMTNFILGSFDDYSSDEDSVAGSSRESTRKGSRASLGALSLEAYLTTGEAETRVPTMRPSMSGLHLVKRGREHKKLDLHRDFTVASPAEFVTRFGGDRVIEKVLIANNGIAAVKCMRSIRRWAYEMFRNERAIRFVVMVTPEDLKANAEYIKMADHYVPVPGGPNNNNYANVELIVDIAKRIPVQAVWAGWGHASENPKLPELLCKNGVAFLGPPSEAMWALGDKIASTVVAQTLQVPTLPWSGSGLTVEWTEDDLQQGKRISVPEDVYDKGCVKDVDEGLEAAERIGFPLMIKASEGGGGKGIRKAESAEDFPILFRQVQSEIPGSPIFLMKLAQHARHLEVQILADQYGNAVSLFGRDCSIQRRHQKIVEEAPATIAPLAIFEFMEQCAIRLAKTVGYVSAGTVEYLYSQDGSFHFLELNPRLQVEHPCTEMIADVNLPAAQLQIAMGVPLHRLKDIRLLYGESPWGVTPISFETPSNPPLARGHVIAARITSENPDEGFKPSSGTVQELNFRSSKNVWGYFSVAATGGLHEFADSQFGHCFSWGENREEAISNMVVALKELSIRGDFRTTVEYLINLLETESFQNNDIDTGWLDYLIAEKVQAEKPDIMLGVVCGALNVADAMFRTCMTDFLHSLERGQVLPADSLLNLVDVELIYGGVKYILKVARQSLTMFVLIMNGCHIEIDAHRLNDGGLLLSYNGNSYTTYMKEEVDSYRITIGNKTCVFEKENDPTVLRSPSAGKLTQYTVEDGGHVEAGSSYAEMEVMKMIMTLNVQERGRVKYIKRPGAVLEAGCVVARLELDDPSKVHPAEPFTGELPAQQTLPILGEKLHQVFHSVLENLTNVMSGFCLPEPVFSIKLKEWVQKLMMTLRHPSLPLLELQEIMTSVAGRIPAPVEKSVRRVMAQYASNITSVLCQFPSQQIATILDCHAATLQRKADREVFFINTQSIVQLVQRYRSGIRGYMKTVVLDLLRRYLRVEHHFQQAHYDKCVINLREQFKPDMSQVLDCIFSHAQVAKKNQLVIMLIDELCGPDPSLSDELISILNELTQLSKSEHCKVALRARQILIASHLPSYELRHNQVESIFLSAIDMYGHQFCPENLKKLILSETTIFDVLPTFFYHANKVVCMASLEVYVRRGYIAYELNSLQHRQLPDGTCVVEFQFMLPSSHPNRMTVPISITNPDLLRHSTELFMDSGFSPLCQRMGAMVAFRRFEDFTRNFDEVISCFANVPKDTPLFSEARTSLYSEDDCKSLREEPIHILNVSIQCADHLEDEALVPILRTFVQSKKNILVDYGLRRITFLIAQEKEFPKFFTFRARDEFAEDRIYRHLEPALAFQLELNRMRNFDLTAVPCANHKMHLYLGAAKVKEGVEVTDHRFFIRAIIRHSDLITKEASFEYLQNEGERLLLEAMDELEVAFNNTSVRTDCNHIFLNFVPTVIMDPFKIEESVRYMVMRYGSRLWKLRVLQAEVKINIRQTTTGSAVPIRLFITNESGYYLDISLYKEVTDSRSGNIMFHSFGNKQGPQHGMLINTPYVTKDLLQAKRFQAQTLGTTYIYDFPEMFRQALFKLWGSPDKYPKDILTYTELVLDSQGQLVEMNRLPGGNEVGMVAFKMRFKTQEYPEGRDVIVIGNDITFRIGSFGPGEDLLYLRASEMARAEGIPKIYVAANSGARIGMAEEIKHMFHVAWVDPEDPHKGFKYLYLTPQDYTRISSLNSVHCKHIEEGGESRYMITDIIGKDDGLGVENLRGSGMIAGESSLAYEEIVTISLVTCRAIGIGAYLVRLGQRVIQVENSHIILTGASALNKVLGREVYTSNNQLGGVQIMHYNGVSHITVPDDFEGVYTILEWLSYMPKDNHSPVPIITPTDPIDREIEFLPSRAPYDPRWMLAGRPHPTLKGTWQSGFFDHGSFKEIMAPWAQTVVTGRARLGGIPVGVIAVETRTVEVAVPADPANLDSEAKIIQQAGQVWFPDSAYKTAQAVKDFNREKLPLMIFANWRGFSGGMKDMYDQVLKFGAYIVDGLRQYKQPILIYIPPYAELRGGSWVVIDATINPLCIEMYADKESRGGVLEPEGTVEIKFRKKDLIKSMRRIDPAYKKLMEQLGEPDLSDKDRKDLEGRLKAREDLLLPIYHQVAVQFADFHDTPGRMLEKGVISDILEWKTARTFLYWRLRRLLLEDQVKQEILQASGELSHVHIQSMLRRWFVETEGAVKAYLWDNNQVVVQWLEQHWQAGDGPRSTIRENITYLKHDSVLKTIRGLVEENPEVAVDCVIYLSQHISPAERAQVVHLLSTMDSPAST
Chain of fungal (fACC2) (Q00955 whole entry): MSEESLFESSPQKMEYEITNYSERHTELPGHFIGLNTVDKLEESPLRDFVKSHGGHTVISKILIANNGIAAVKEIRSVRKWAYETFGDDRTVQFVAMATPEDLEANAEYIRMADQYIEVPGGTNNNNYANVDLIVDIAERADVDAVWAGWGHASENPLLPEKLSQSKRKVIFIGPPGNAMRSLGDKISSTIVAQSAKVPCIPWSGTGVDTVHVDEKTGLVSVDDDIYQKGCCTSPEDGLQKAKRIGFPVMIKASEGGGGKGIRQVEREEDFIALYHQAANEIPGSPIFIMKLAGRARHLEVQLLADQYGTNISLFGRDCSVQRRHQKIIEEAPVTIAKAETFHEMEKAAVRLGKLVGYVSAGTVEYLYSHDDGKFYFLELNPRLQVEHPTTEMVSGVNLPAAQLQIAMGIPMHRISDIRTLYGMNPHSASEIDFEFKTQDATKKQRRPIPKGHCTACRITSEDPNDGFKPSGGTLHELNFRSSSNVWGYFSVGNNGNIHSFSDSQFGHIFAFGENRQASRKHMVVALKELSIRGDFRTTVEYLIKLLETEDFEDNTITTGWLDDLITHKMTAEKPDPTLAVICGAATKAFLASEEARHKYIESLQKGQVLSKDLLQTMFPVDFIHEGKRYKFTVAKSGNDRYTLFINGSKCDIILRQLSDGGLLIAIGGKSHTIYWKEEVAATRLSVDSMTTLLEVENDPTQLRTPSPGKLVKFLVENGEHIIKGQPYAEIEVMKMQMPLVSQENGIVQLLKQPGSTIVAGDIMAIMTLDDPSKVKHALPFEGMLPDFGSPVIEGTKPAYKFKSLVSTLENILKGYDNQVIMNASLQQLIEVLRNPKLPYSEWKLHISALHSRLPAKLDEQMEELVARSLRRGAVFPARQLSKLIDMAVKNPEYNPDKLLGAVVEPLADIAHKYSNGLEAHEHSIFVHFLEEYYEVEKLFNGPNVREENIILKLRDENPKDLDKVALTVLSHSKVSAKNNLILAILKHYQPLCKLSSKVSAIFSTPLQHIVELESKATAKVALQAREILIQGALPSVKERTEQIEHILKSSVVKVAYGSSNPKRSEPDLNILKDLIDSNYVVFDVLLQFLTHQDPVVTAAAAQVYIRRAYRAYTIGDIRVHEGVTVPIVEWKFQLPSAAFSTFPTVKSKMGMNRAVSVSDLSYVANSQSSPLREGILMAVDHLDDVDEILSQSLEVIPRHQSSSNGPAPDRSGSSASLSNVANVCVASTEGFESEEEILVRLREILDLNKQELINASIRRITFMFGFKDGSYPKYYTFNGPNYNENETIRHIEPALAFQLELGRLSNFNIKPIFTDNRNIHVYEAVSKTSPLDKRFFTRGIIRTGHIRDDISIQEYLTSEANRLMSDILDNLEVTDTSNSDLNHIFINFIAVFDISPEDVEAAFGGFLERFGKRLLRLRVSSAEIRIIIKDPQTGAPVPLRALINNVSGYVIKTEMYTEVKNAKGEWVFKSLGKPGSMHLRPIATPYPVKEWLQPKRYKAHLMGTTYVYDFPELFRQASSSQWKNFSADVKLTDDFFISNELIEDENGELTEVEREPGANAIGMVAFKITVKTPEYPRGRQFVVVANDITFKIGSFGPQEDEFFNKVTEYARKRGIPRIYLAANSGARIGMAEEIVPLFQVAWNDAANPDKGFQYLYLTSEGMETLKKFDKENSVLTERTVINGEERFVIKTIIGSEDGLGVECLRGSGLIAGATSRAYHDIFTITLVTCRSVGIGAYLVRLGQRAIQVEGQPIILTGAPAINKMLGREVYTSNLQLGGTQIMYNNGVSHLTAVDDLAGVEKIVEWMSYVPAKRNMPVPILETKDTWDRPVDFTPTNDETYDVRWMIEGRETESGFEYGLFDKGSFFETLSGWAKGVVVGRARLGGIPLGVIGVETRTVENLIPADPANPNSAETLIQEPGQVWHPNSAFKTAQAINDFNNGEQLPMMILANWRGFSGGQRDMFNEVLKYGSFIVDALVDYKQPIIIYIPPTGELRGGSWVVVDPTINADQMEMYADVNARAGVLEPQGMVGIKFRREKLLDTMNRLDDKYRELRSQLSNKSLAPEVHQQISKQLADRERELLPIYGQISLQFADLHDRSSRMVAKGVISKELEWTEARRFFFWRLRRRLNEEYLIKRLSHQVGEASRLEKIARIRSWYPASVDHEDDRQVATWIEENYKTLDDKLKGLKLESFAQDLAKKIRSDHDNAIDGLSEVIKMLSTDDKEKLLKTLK

| Compound | IC90 [1, 5] | IC90 [1, 6] | MIC (C. parapsilosis; [7]) | MIC (C. parapsilosis; [8]) | IC90 [2, 9] | IC90 [2, 10] | IC90 [3, 11] | IC90 [3, 12] | IC90 (Septoria tritici (St); [13]) | IC90 (Septoria tritici (St); [14]) | IC50 (human (hACC2); Table 2a) | IC50 (human (hACC2); Table 2b, additional results) | IC50 (fungal (fACC2); Table 2a) | IC50 (fungal (fACC2); Table 2b, additional results) | IC90 (Rhizoctonia solani (Rs); [15]) | IC90 (Rhizoctonia solani (Rs); [16]) | IC90 (Diplodia maydis (Dm); [17]) | IC90 (Diplodia maydis (Dm); [18]) | IC90 [4, 19] | IC90 [4, 20] | other results |
| --- | --- | --- | --- | --- | --- | --- | --- | --- | --- | --- | --- | --- | --- | --- | --- | --- | --- | --- | --- | --- | --- |
| COc1ccc(F)cc1[C@H](Cn1c(=O)n([C@@H](C)C(=O)N(C)C(C)C)c(=O)c2c(C)c(-n3nccn3)sc21)OCCO [Compound I-78, (S)-2-(1-((R)-2-(5-fluoro-2-methoxyphenyl)-2-(2-hydroxy-ethoxy)ethyl)-5-methyl-2,4-dioxo-6-(2H-1,2,3-triazol-2-yl)-1,4-dihydrothieno[2,3-d]pyrimidin-3(2H)-yl)-N-isopropyl-N-methylpropanamide] | 0.4 µg/mL (≈ 0.68 µM) | 0.4 µg/mL (≈ 0.68 µM) | 2.1 to 4 µg/mL (≈ 3.57 to 6.8 µM) | 2.01 to 4 µg/mL (≈ 3.41 to 6.8 µM) | > 50 µg/mL | > 50 µg/mL | 0.4 µg/mL (≈ 0.68 µM) | 0.4 µg/mL (≈ 0.68 µM) | 10 µg/mL (≈ 17 µM) | > 50 µg/mL | 10 to 40 nM | 10 to 40 nM | 1 to 5 nM | 0.3 to 1 nM | 0.08 µg/mL (≈ 0.136 µM) | 0.08 µg/mL (≈ 0.136 µM) | 2 µg/mL (≈ 3.4 µM) | 2 µg/mL (≈ 3.4 µM) | 0.08 µg/mL (≈ 0.136 µM) | 0.08 µg/mL (≈ 0.136 µM) | – |
| COCCO[C@@H](Cn1c(=O)n(CC(=O)N2CCCC2)c(=O)c2c(C)c(-n3nccn3)sc21)c1cc(F)ccc1OC [Compound I-79, (R)-1-(2-(5-fluoro-2-methoxyphenyl)-2-(2-methoxy-ethoxy)ethyl)-5-methyl-3-(2-oxo-2-(pyrrolidin-1-yl)ethyl)-6-(2H-1,2,3-tria-zol-2-yl)thieno[2,3-d]pyrimidine-2,4(1H,3H)-dione] | 2 µg/mL (≈ 3.41 µM) | 10 µg/mL (≈ 17 µM) | 2.1 to 4 µg/mL (≈ 3.58 to 6.82 µM) | 2.01 to 4 µg/mL (≈ 3.43 to 6.82 µM) | > 50 µg/mL | > 50 µg/mL | 2 µg/mL (≈ 3.41 µM) | 10 µg/mL (≈ 17 µM) | > 50 µg/mL | > 50 µg/mL | 10 to 40 nM | 10 to 40 nM | 1 to 5 nM | 1 to 5 nM | 10 µg/mL (≈ 17 µM) | > 50 µg/mL | 2 µg/mL (≈ 3.41 µM) | 2 µg/mL (≈ 3.41 µM) | 0.4 µg/mL (≈ 0.682 µM) | 0.4 µg/mL (≈ 0.682 µM) | – |
| COCCO[C@@H](Cn1c(=O)n(CC(=O)NC(C)C)c(=O)c2c(C)c(-n3nccn3)sc21)c1cc(F)ccc1OC [Compound I-80, (R)-2-(1-(2-(5-fluoro-2-methoxyphenyl)-2-(2-methoxy-ethoxy)ethyl)-5-methyl-2,4-dioxo-6-(2H-1,2,3-triazol-2-yl)-1,4-dihydro-thieno[2,3-d]pyrimidin-3(2H)-yl)-N-isopropylacetamide] | – | – | – | – | – | – | – | – | – | – | > 40 nM | > 40 nM | 1 to 5 nM | 1 to 5 nM | – | – | – | – | – | – | IC90 ([1]; read-out: Concentration at 90% Inhibition Fv, Fusarium virguliforme, growth inhibition at 48 hours vs 2% DMSO control): 2 µg/mL (≈ 3.48 µM); IC90 ([1]; read-out: Concentration at 90% Inhibition Fv, Fusarium virguliforme, growth inhibition vs 2% DMSO control at 48 hours): 10 µg/mL (≈ 17.4 µM); MIC (C. parapsilosis; read-out: MIC, C. parapsilosis ATCC 22019, Table 3a, 3 replicates, MIC recorded at 48 h): 2.1 to 4 µg/mL (≈ 3.65 to 6.96 µM); MIC (C. parapsilosis; read-out: MIC, C. parapsilosis ATCC 22019, Table 3b (additional results), 3 replicates, MIC recorded at 48 h): 2.01 to 4 µg/mL (≈ 3.5 to 6.96 µM); IC90 ([2]; read-out: Concentration at 90% Inhibition Pc, Phytophthora capsici, growth inhibition at 48 hours vs 2% DMSO control): > 50 µg/mL; IC90 ([2]; read-out: Concentration at 90% Inhibition Pc, Phytophthora capsici, growth inhibition vs 2% DMSO control at 48 hours): > 50 µg/mL; IC90 ([3]; read-out: Concentration at 90% Inhibition Cg, Collectotrichum graminicola, growth inhibition at 48 hours vs 2% DMSO control): > 50 µg/mL; IC90 ([3]; read-out: Concentration at 90% Inhibition Cg, Collectotrichum graminicola, growth inhibition vs 2% DMSO control at 48 hours): > 50 µg/mL; IC90 (Septoria tritici (St); read-out: Concentration at 90% Inhibition St, Septoria tritici, growth inhibition at 48 hours vs 2% DMSO control): > 50 µg/mL; IC90 (Septoria tritici (St); read-out: Concentration at 90% Inhibition St, Septoria tritici, growth inhibition vs 2% DMSO control at 48 hours): > 50 µg/mL; IC90 (Rhizoctonia solani (Rs); read-out: Concentration at 90% Inhibition Rs, Rhizoctonia solani, mycelial plugs, growth inhibition at 48 hours vs 2% DMSO control): 10 µg/mL (≈ 17.4 µM); IC90 (Rhizoctonia solani (Rs); read-out: Concentration at 90% Inhibition Rs, Rhizoctonia solani, mycelial plugs, growth inhibition vs 2% DMSO control at 48 hours): > 50 µg/mL; IC90 (Diplodia maydis (Dm); read-out: Concentration at 90% Inhibition Dm, Diplodia maydis, growth inhibition at 48 hours vs 2% DMSO control): > 50 µg/mL; IC90 (Diplodia maydis (Dm); read-out: Concentration at 90% Inhibition Dm, Diplodia maydis, growth inhibition vs 2% DMSO control at 48 hours): > 50 µg/mL; Concentration at 90% Inhibition Fm [4, 19]: AA (compound concentration of 0.08 ppm at 90% inhibition of fungal pathogens); IC90 [4]: 0.08 µg/mL (≈ 0.139 µM) |
